Measurements taken from ChEMBL document CHEMBL5131572, “Identification of a Potent, Selective, and Brain-Penetrant Rho Kinase Inhibitor and its Activity in a Mouse Model of Huntington's Disease” (J Med Chem, 2022).
Converted amounts (≈) assume the structure as drawn.

How the values were obtained:
[1] = target: T1, cGMP-dependent protein kinase 1 (Homo sapiens, UniProt Q13976); assay: Inhibition of full length recombinant N-terminal GST-tagged human PKG expressed in baculovirus infected Sf9 insect cells using RSK as substrate preincubated for 15 mins followed by substrate addition and measured after 30 mins in presence of ATP by ADP Glo kinase assay
T1 sequence (Q13976 whole entry): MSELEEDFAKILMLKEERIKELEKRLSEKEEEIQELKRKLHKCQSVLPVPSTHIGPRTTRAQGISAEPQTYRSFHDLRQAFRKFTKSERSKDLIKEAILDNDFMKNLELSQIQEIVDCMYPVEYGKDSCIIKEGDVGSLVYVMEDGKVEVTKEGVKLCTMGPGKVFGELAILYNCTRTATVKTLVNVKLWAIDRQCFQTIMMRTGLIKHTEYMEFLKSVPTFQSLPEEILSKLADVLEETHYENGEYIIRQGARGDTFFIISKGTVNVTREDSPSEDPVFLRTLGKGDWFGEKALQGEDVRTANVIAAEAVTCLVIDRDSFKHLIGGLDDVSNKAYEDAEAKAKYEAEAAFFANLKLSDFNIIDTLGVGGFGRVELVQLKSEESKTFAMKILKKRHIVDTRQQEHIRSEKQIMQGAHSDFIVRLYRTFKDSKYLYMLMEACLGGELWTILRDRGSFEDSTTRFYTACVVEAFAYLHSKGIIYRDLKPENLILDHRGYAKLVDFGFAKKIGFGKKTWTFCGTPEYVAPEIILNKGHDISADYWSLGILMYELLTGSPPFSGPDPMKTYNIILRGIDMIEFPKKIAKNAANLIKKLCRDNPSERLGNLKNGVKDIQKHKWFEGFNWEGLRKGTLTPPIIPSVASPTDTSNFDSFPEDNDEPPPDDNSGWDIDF

[2] = Inhibition of ROCK in rat A7R5 cells assessed as cofilin serine 3 phosphorylation incubated for 1 hr by ICW assay; conditions: A7R5, 1 h
[3] = target: Rho-associated protein kinase 2 (Homo sapiens, UniProt O75116); assay: Inhibition of recombinant N-terminal GST-tagged human ROCK2 (5 to 554 residues) expressed in baculovirus infected Sf9 cells using S6K as substrate incubated for 30 mins in presence of ATP by ADP Glo kinase assay
Rho-associated protein kinase 2, sequence (O75116 whole entry, the tested form may be a part): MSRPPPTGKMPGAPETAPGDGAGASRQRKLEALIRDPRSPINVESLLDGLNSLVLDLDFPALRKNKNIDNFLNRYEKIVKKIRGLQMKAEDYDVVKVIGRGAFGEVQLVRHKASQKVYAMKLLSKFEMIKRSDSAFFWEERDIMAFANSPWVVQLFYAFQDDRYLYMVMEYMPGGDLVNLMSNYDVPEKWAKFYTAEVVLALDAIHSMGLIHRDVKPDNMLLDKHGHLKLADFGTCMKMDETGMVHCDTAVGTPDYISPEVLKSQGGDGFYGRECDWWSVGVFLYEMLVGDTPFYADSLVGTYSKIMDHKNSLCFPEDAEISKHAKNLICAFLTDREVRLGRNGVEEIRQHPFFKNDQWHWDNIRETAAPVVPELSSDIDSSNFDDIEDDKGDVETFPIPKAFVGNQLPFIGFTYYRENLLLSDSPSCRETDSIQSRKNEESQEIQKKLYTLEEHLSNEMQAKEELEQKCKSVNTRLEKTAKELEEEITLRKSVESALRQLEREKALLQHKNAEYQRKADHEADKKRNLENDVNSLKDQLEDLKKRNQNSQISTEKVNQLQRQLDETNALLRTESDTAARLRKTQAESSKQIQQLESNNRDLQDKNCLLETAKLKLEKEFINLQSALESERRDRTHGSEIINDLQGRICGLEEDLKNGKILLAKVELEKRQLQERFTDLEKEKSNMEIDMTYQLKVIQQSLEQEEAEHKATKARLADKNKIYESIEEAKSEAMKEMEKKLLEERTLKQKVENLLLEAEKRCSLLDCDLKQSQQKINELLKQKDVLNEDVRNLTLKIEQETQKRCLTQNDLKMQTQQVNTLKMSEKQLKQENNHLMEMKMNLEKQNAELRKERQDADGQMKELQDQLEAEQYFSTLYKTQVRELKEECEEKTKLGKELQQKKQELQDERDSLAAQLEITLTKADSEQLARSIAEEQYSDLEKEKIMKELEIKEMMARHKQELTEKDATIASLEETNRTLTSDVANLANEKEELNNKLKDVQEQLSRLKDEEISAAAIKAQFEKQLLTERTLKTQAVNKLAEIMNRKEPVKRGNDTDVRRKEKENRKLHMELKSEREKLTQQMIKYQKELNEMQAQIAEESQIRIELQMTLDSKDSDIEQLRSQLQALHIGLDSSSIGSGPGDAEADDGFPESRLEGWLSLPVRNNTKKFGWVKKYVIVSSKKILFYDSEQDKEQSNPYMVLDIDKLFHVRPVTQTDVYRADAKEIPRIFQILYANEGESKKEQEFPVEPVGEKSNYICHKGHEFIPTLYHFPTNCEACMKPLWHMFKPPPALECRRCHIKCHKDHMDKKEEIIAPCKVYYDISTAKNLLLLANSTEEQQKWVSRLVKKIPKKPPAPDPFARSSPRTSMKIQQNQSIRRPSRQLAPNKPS

[4] = Lipophilicity, logP of compound; assay type: physicochemical; conditions: octanol/water
[5] = Distribution coefficient, logD of compound by chromatographic method; assay type: physicochemical; conditions: octanol/water
[6] = Kinetic solubility of the compound in pH 7.4 PBS buffer incubated for 2 hrs using orbital shaker by LC-UV mass spectrometry; assay type: physicochemical; conditions: read-out: Kinetic_solubility
[7] = Metabolic stability in mouse liver microsomes assessed as intrinsic clearance at 1 uM measured upto 40 mins in presence of NADPH by LC-MS/MS analysis; assay type: ADME, Microsome; conditions: read-out: CLH
[8] = Apparent permeability in MDCK-MDR1 cells at 10 uM after 1 hr by LC-MS/MS analysis; assay type: ADME, cell-based, Canis lupus familiaris; conditions: dog
[9] = Inhibition of ROCK in human PANC-1 cells assessed as decrease in MYPT1 phosphorylation at T850 residues measured after 1 hr by Western blot analysis; assay type: cell-based; conditions: PANC-1, 1 h
[10] = Inhibition of ROCK in rat A7R5 cells assessed as increase in AKT phosphorylation measured after 30 mins by alphaLISA Surefire multiplex assay; assay type: cell-based; conditions: A7R5, 0.5 h
[11] = target: RAC-alpha serine/threonine-protein kinase (Homo sapiens, UniProt P31749); assay: Inhibition of AKT (unknown origin)
RAC-alpha serine/threonine-protein kinase, sequence (P31749 whole entry): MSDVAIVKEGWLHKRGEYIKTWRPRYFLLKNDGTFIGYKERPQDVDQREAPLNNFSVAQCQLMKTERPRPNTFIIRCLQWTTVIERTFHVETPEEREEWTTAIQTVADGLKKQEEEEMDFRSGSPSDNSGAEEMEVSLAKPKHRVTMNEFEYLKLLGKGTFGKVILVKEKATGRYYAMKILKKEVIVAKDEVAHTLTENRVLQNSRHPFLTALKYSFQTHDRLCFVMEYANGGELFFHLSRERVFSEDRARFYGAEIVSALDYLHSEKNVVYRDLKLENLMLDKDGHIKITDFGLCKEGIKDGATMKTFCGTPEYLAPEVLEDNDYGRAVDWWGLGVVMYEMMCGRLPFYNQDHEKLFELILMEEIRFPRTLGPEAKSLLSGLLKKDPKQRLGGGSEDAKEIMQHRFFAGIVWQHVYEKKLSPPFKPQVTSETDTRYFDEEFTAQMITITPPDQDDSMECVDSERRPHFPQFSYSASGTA

[12] = Oral bioavailability in C57BL/6 mouse at 10 mg/kg; assay type: ADME, organism-based; conditions: in vivo
[13] = Clearance in C57BL/6 mouse plasma at 2 mg/kg, iv; assay type: ADME, organism-based
[14] = Unbound AUC in C57BL/6 mouse plasma at 10 mg/kg, po by LC-MS/MS analysis; assay type: ADME, organism-based; conditions: in vivo
Cytochrome P450 1A2 = target: T2, Cytochrome P450 1A2 (Homo sapiens, UniProt P05177); assay: Time dependent inhibition of CYP1A2 in pooled human liver microsomes using […] as substrate preincubated for 30 mins in presence of NADPH followed by substrate addition and measured after 10 mins by LC-MS/MS analysis; assay type: ADME, Microsome
T2 sequence (P05177 whole entry): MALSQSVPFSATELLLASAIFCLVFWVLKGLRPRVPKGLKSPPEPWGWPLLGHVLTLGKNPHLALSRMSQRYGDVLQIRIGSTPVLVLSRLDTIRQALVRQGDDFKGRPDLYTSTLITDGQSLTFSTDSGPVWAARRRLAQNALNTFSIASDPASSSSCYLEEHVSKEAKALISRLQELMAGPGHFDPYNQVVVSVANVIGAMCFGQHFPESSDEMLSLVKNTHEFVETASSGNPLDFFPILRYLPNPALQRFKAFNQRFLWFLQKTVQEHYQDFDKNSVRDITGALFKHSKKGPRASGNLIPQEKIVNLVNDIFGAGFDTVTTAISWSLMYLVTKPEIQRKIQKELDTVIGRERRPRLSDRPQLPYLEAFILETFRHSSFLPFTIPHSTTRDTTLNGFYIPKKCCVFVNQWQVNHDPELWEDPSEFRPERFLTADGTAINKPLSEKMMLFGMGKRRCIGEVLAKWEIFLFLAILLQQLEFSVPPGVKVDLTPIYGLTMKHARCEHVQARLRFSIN

[15] = Unbound AUC in C57BL/6 mouse brain at 10 mg/kg, po by LC-MS/MS analysis; assay type: ADME, organism-based; conditions: in vivo
MDR1 = assay: in vitro; conditions: dog, MDCK-MDR1
Description: Efflux ratio of apparent permeability across basolateral to apical side to apical to basolateral side in MDCK-MDR1 cells at 10 uM measured after 1 hr by LC-MS/MS analysis

Row | Structure (SMILES) | IC50 [1] [nM] | IC50 [2] [nM] | IC50 [3] [nM] | other results
1 | COc1cccc([C@@H](C)NC(=O)N2CCC(c3ccncc3F)CC2)c1 | 31800 | 721 | 45 | 
2 | COc1cc([C@@H](C)NC(=O)N2CCN(c3ccncc3F)C[C@H]2C)ccc1F | 2340 | 33 | 3 | 
3 | COc1cccc([C@@H](C)NC(=O)N2CCN(c3ccncc3)C(=O)C2)c1 |  | > 5000 | 534 | 
4 | COc1ccc(Cl)c([C@@H](C)NC(=O)N2CCN(c3ccncc3F)C[C@H]2C)c1 | 11600 | 164 |  | logP [4]: 3.3; chromatographic logD [5]: 2.7; solubility kinetic at 2 h [6]: 120 µM (≈ 48.8 µg/mL); CLint scaled at 1 µM [7]: 199 mL/min/kg; Papp at 1 h, 10 µM [8]: 122 ×10⁻⁶ cm/s
5 | COc1cccc([C@@H](C)NC(=O)c2ccc(-c3ccnc(F)c3)nc2)c1 | 320 | 290 | 26 | IC50 [9]: 1870 nM; EC50 [10]: 3210 nM; IC50 [11]: 9260 nM
6 | COc1cccc([C@@H](C)NC(=O)N2CC[C@@H](c3ccncc3)C[C@H]2C)c1 | 19400 | 249 | 35 | 
7 | COc1cc(F)cc([C@@H](C)NC(=O)N2CCN(c3ccncc3F)C[C@H]2C)c1 | 1700 | 15 |  | logP [4]: 2.7; bioavailability [12]: 78%; clearance [13]: 85 mL/min/kg; chromatographic logD [5]: 2.4; fAUC [14]: 30 nM·kg·h/mg; IC50 (Cytochrome P450 1A2): 1100 nM; solubility kinetic at 2 h [6]: 140 µM (≈ 54.7 µg/mL); CLint scaled at 1 µM [7]: < 65 mL/min/kg; fAUC [15]: 40 nM·kg·h/mg; Papp at 1 h, 10 µM [8]: 98.4 ×10⁻⁶ cm/s
8 | COc1cccc([C@@H](C)NC(=O)[C@H]2CC[C@@H](c3ccncc3)CC2)c1 | 24300 | > 5000 | 4330 | 
9 | COc1cccc([C@@H](C)NC(=O)c2ccc(-c3ccnc(F)c3)nn2)c1 | 3600 | 4270 | 280 | 
10 | COc1cccc([C@@H](C)NC(=O)N2CCC(c3ccncc3)CC2)c1 | 52800 | 673 | 74 | 
11 | C[C@@H]1CN(c2ccncc2F)CCN1C(=O)N[C@H](C)c1cccc2nccn12 | 8140 | 18 |  | 
12 | COc1cccc([C@@H](C)NC(=O)c2ccc(-c3ccncc3)nc2)c1 | 39 | 44 | 4 | 
13 | COc1cccc([C@@H](C)NC(=O)N2CC[C@H](c3ccncc3)C[C@@H]2C)c1 | 48800 | 3310 | 1640 | 
14 | COc1cccc([C@@H](C)NC(=O)c2ccc(-c3ccnc(F)c3)cc2)c1 | 17 | 77 |  | IC50 [11]: 2370 nM
15 | O=S(=O)(c1cccc2c(O)nccc12)N1CCCNCC1 [HYDROXYFASUDIL] |  | 3820 |  | logP [4]: 1.43; solubility kinetic at 2 h [6]: > 200 µM
16 | COc1cccc([C@@H](C)NC(=O)[C@H]2CC[C@H](c3ccncc3)C[C@H]2C)c1 | 33800 | 963 | 45 | efflux ratio at 1 h, 10 µM (MDR1): 1.1; solubility kinetic at 2 h [6]: 130 µM (≈ 45.8 µg/mL); CLint scaled at 1 µM [7]: 90 mL/min/kg; Papp at 1 h, 10 µM [8]: 77.6 ×10⁻⁶ cm/s
